Article PMC12084297, “Cytoplasmic connexin43-microtubule interactions promote glioblastoma stem-like cell maintenance and tumorigenicity” (Cell Death & Disease, 2025)

Tests used:
α-tubulin = test: Cellular thermal shift assay (CETSA), α-tubulin target engagement; assay type: binding, human; details: fresh VTC-037 GSC lysates, 3-fold dilutions 222.2-2.7 nM, 1 h, heat challenge 57 °C (Tagg(75)) 20 min, immunoblot, normalized to DMSO control
Description: For an initial determination of the melting profile of α- and β- tubulin, fresh lysates of GSCs prepared in non-denaturing buffer were dispensed into 96-well PCR plate in stem cell medium (approximately 10,000 cells/well/50 µl), and then subjected to temperature gradient (37–65 °C) for 20 min. Subsequently, centrifugation was performed at 14,000 rpm to sediment the unstable protein content. Supernatant was collected and SDS-PAGE gel was run, and immunodetection was performed to detect α- and β- tubulin using specific primary antibodies described above. A rabbit antibody against β-actin (Cell Signaling Technology; 4970) was used as negative control. Band intensities were quantified on LI-COR C-DiGit Blot Scanner, and subsequently Tagg(50) and Tagg(75) values were calculated for α- and β- tubulin. In a subsequent run, fresh lysates of GSCs were treated at various doses with 3-fold dilutions (222.2, 74.0, 24.7, 8.2 and 2.7 nM) of peptides JM2 and JM2-scrambled, together with DMSO as control, for 1 h. Samples were then subjected to heat challenge at 57 °C for 20 min, and unstable protein was removed by centrifugation step. Following an immunoblotting step, band intensities of the stable tubulin was quantified, and normalized to DMSO control. EC50 values of engagement for both peptide with α- and β- tubulin were subsequently calculated.

LN229/GSC tumor = test: TUNEL and H&E of LN229/GSC-derived tumor sections; assay type: in vivo, mouse (BALB/c nude), human LN229/GSC cells; details: LN229/GSC tumors, 300 µM intratumorally every other day, after 33 days
Description: (§1) Tumors were harvested, snap-frozen in Tissue-Tek® O.C.T. compound (Sakura), and stored at −80 °C until sectioning. […] sections were cut using a Leica CM1850 UV cryostat, placed onto Superfrost Plus^TM slides (Fisher Scientific) and fixed in −20 °C acetone for 5 minutes before air drying. Slides were stored at −80 °C prior to labeling. Tumors sections were then rehydrated in PBS for 5 min, permeabilized in 0.1% Triton X-100 in PBS for 1 h at room temperature, and washed four times with PBS (2 x quick, 2 × 5 min) prior to incubating with streptavidin conjugated to Alexa Fluor 647 (Thermo Fisher) diluted in high-salt buffer (0.5 M NaCl, 10 mM Hepes) for 30 min at room temperature. Tumor sections were then washed four times with high-salt buffer (2 x quick, 2 × 10 min), and twice with PBS (2 × 5 min) before using One-step TUNEL In Situ Apoptosis kit (Green Elab Fluor® 488; Elabscience), according to manufacturer’s instructions. Tumor sections were then washed in PBS (3 × 5 min), incubated with DAPI (Thermo Fisher) in PBS for 5 min, and washed again with PBS (4 × 5 min) before the slides were mounted using Prolong Gold Antifade (Thermo Fisher). GBM22-derived tumor sections were analyzed using fluorescence confocal microscopy on a Nikon NIE upright confocal microscope, while LN229/GSC-derived tumor sections were observed using LED illumination microscopy on a Revolve microscope. For hematoxylin and eosin (H&E) staining, tumor sections were stained using a Histo-Tek® SL Slide Stainer (Sakura), and observed using phase contrast microscopy on a Revolve microscope. Investigators were blinded for all image acquisition experiments.

VTC-034 GSCs = test: Caspase 3/7 activity, VTC-034 GSCs; assay type: cell-based, human; details: VTC-034 adherent GSCs, 10, 50 or 100 μM, 48 h, Caspase-Glo 3/7
Description: Cells were plated in 96-well plates (2000–5000 cells per well) and treated the following day with TMZ (10, 50, or 100 μM), antennapedia, JM2-scrambled, or JM2 (10, 50, or 100 μM). After 4 days, cell viability was monitored following addition of MTS reagent (Promega) according to manufacturer’s instructions. The absorbance at 490 nm was measured using a SpectraMax i3 or iD3 microplate reader (Molecular Devices). For the caspase 3/7 activity assay, cells were plated in 96-well plates (2000 cells per well) and treated with TMZ or peptides as described above. The activity of caspase 3/7 was measured after 48 h using the Caspase-Glo® 3/7 assay (Promega) following the manufacturer’s instructions. Fold change of caspase 3/7 activity was defined as the ratio of caspase 3/7 luminescence in treated cells compared to controls.

PDX GBM22 tumor [1] = test: PDX GBM22 tumor growth in mouse flank; assay type: in vivo, mouse (athymic nude), human GBM22 cells; details: 300 μM intratumorally every day for 14 days, n = 7 mice per group
Description: Animal studies were approved by the Institutional Animal Care and Use Committee (IACUC) of Virginia Tech. Female athymic nude mice (Envigo) aged 6-8 weeks were used for the maintenance and propagation of PDX GBM22 cells. PDX GBM22 tumors were maintained by serial passage in nude mouse flanks as described previously. Briefly, tumors were harvested 14–18 days post-injection and glioblastoma cells were mechanically and enzymatically dissociated. […] After 2 days, tumors were measured and mice were randomly separated into three groups (7 mice per group), and vehicle/control (PBS), JM2-scrambled or JM2 were administered at 300 μM intratumorally every day for 14 days. Tumors were then measured by blinded investigators and harvested for analysis (see section below). Tumor volume was calculated using the formula (length × width^2)/2. […] After 7 days, tumors were measured and mice were randomly separated into three groups; vehicle/control (PBS), JM2-scrambled, and JM2 (3 mice per group). […] Tumor sizes were measured by electronic calipers at different times by blinded investigators, and tumor volume was calculated using the formula (length × width^2)/2.

PDX GBM22 tumor [2] = test: TUNEL and H&E of GBM22-derived tumor sections; assay type: in vivo, mouse (athymic nude), human GBM22 cells; details: GBM22 tumors, 300 μM intratumorally every day for 14 days, harvested after 16 days
Description: as §1

Sequence	EC50 (α-tubulin) [nM]	Cell death in tumor sections (H&E) (LN229/GSC tumor)	Cell death in tumor sections (TUNEL) (LN229/GSC tumor)	Apoptosis induction (caspase 3/7 activity) (VTC-034 GSCs)	GBM22-derived tumor growth (PDX GBM22 tumor [1])	Cell death in tumor sections (H&E) (PDX GBM22 tumor [2])	Cell death in tumor sections (TUNEL) (PDX GBM22 tumor [2])
VFFKGVKDRVKGRSD [JM2]	8.4	further confirmed by H&E staining	increased LN229-derived GSC death that positively correlated with the presence of JM2 within the tumors	increased caspase 3/7 activity in these cells in a dose-dependent manner	did not detect any significant tumor growth	Increased cell death within JM2-treated tumors was further confirmed	Positive JM2 signal within the tumors correlated with an increase in cell death
GSDVFKRKFVDRKVG [JM2-scrambled, reference compound]	> 200	–	no significant cell death was observed	inefficient in inducing apoptosis	observed GBM22-derived tumor formation	–	no significant correlation was observed
